In PubChem BioAssay (NCI) one finds TGI and GI50 data, which are given here for 25 compounds.

Molecules are shown by their SMILES.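 Step 1: Grow cells in 96-well plates. Step 2: Expose to compound for 48 hours at 5 concentrations. Step 3: Interpolate endpoints linearly; if unreached, use highest concentration. Abbreviation: GI50, concentration required for 50% inhibition of growth. TGI is the concentration that stops growth completely.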

Holding throughout (assay): DTP human tumour cell line panel, 48 h
For assay [1], the system named is CAKI-1 renal.
In assay [2] the test system is HT29 colon.
For assay [3], the system named is SNB-75 CNS.
The test system of assay [4] is SF-295 CNS.
The subject of assay [5] is A498 renal.
Assay [6] has as its system UACC-257 melanoma.
Assay [7] deals with DU-145 prostate.
For assay [8], the system named is SK-MEL-2 melanoma.
The test system of assay [9] is NCI-H23 lung.
Assay [10] relates to HOP-92 NSCLC.
The subject of assay [11] is OVCAR-4 ovarian.

One may read the TGI as the concentration giving total growth inhibition. Low values mean more potent growth arrest, high ones less potent growth arrest. Consider `Cn1c(N)c(/C=C/C(=O)Oc2ccccc2)c(=O)n(C)c1=O`, for which the TGI is 63.8 µM in assay [1]; over 100 µM in assay [2]; 66.5 µM in assay [3]; 93.6 µM in assay [4]; over 100 µM in assay [5]; over 100 µM in [6]. In addition, the concentration for total growth inhibition (TGI) in assay [7] is over 100 µM; in [8], over 100 µM; in assay [9], over 100 µM; in assay [10], 93 µM; in [11], over 100 µM.

`CC1(C)CCC[C@@]2(C)C1CC[C@@]1(CO1)[C@@H]2/C=C\C(C=O)CC=O` (stereo partly drawn): the TGI in assay [1], in [2], in assay [3], in assay [4], in assay [5] and in assay [6] was over 100 µM throughout. The TGI in [7], in assay [8], in assay [9], in assay [10] and in [11] was over 100 µM throughout.

Regarding `CC(C)CC1NC(=O)CCC(NC(=O)C(Cc2ccc(O)cc2)NC(=O)OCc2ccccc2)C(=O)NC(Cc2ccccc2)C(=O)NC(Cc2ccccc2)NC1=O` (stereo not drawn), the TGI in assay [1], in [2], in [3], in assay [4], in [6] and in [7] was over 100 µM each time. The TGI in [8], in assay [9], in assay [10] and in assay [11] was over 100 µM each time.

Turning to `COc1ccc(NC(/C(C(=O)C(=O)/C=C(\O)c2ccccc2)=C(\O)c2ccccc2)c2ccc(OC)cc2)cc1` (stereo not drawn), the TGI in [1] is over 100 µM; in assay [2], over 100 µM; in assay [3], 51.9 µM; in [4], over 100 µM; in assay [5] it was over 100 µM; in [6] it was over 100 µM. The TGI was over 100 µM in assay [7]; 89 µM in [8]; over 100 µM in assay [9]; 75.8 µM in [10]; over 100 µM in assay [11].

By GI50 is commonly meant the concentration giving 50% growth inhibition. For `COc1ccc2[nH]c3c(O)c(-c4c(C)cc5c([nH]c6ccc(OC)cc65)c4O)c(C)cc3c2c1`, the GI50 is 4.27 µM in [1]; 3.71 µM in [2]; 5.11 µM in assay [4]; 4.78 µM in assay [5]; 4.48 µM in assay [9]. In addition, the TGI in assay [1] stood at 8.39 µM; in [2] it was 7.6 µM; in assay [3], 7.18 µM; in assay [4] it was 8.86 µM; in [5], 8.35 µM; in assay [6], 8.32 µM. The TGI in [7] was found to be 7.97 µM; in assay [8] it was 10.7 µM; in assay [9], 8.38 µM; in assay [10], 8.18 µM; in [11], 7.22 µM.

For `Cc1ccc(CN2CCN(Cc3ccc(C)o3)C(C)C2)o1` (stereo not drawn), the TGI in [1], in assay [2], in assay [3], in [4], in assay [5] and in [6] was over 100 µM in each case. Further, the TGI in [7], in assay [8], in assay [9], in [10] and in assay [11] was over 100 µM in each case.

`COc1cc(C(=O)OC2CC34CCNC35CC(OC5(OC)C2O)c2cc3c(cc24)OCO3)ccc1O` (stereo not drawn): the TGI in [1], in [2], in assay [3], in [4], in [5] and in assay [6] was over 100 µM in each case. Besides, the TGI in assay [7], in assay [8], in assay [9], in assay [10] and in assay [11] was over 100 µM in each case.

Consider `CC(C)(C)NC(=S)N/N=C/c1ccccn1`, for which the TGI in assay [1] is over 100 µM; in assay [2], over 100 µM; in [3], over 100 µM; in assay [4] it was over 100 µM; in [5], over 79.1 µM; in [7], over 100 µM. Besides, the TGI in [8] is over 100 µM; in assay [9] it was over 100 µM; in [10], 89.3 µM; in assay [11], over 100 µM.

Turning to `Cc1ccc2c(c1)CC1(C2)Cc2ccc(C)cc2C1=O` (stereo not drawn), the TGI in assay [1] is 87.2 µM; in assay [2], 56.2 µM; in [3] it was 84.3 µM; in assay [4], over 100 µM; in assay [5] it was over 100 µM; in [6], 48.1 µM. In addition, the TGI was over 100 µM in assay [7]; 47.1 µM in assay [8]; over 100 µM in assay [9]; 66.3 µM in assay [10]; over 100 µM in assay [11].

As for `CCOC(=O)CCc1ccc(NC(=O)/C=C/c2ccc([N+](=O)[O-])o2)cc1`, the TGI in [1] amounted to 6.54 µM; in assay [2], 3.43 µM; in assay [3], 11.2 µM; in [4], 28.7 µM; in [5], 7.27 µM; in assay [6], 2.71 µM. Besides, the concentration for total growth inhibition (TGI) in assay [7] was 6.39 µM; in assay [8], 4.82 µM; in assay [9], 3.33 µM; in [10], 50.7 µM; in assay [11] it was over 100 µM.

Regarding `CCOC(=O)c1csc(-c2cn(C)c3c2C(=O)C(OC)=CC3=O)n1`, the TGI was over 100 µM in [1]; over 100 µM in assay [2]; over 83.4 µM in assay [3]; 96.9 µM in assay [4]; 73.1 µM in [5]; over 78.9 µM in [6]. Besides, the TGI was 91.3 µM in assay [7]; over 78 µM in assay [8]; over 56.7 µM in assay [9]; over 100 µM in assay [10]; over 100 µM in assay [11].

For `O=C(CCN1CCCC1)c1ccc(Oc2ccc(F)cc2)cc1`, the TGI in assay [1] is 30.1 µM; in [2], over 100 µM; in assay [3], over 100 µM; in [4] it was over 100 µM; in [6], over 100 µM; in assay [7], over 100 µM. In addition, the TGI in [8] was over 100 µM; in assay [9], over 100 µM; in assay [10], 41.5 µM; in assay [11], over 100 µM.

`O=c1c2ccccc2nc(N/N=C/c2ccc(Cl)cc2)n1-c1ccccc1`: the TGI in [1], in assay [2], in assay [4], in assay [5], in [6] and in assay [7] was over 100 µM in each case. Moreover, the TGI in assay [8] is 77.2 µM; in [9], over 100 µM; in assay [10], over 100 µM; in [11], over 100 µM.

`COC1C(=O)N(SC)C1c1ccccc1Cl` (stereo not drawn): the TGI in assay [1] is over 100 µM; in [2], 40.7 µM; in assay [4] it was over 100 µM; in [5], over 100 µM; in assay [6], over 100 µM; in [7] it was over 100 µM. The total growth inhibition concentration (TGI) in [8] was over 100 µM; in assay [9] it was over 100 µM; in assay [10], over 100 µM; in [11], 30.3 µM.

Consider `Cc1nn(C(=O)c2ccc(Cl)cc2)c2c1C(c1ccc(Cl)cc1)SC(N)=N2` (stereo not drawn), for which the TGI in assay [1], in assay [2], in assay [3], in [4], in assay [6] and in assay [7] was over 10 µM each time. Also, the TGI in assay [8], in [9], in assay [10] and in assay [11] was over 10 µM throughout.

With `CC(=O)OC(C)c1cc2c(s1)C(=O)c1ccsc1C2=O` (stereo not drawn), the TGI is 2.39 µM in assay [1]; 0.301 µM in assay [3]; 0.233 µM in [4]; 3.32 µM in assay [5]; 0.156 µM in [6]; 0.242 µM in assay [7]. Besides, the TGI in assay [8] stood at 0.927 µM; in assay [9], 0.196 µM; in [10] it was 1.74 µM; in [11], 1.93 µM.

Consider `Nc1ncc2c(n1)-c1ccccc1OC2N1CCOCC1` (stereo not drawn), for which the TGI in assay [1], in assay [2], in assay [3], in assay [4], in assay [6] and in [7] was over 100 µM throughout. In addition, the concentration for total growth inhibition (TGI) in assay [8], in [9], in assay [10] and in assay [11] was over 100 µM throughout.

On to `COC(=O)[C@@H]1[C@H]2CC[C@]3(C)[C@@H](OC(C)=O)CC[C@H]3[C@@H]2CC[C@H]1C(C)=O`, for which the TGI in assay [1], in [2], in assay [3], in assay [4], in [5] and in assay [6] was over 100 µM each time. Further, the total growth inhibition concentration (TGI) in [7], in assay [8], in assay [9] and in assay [10] was over 100 µM throughout.

With `Clc1ccc(N2N=C(c3cccc(Nc4ccncc4)c3)CC2c2ccc(Br)cc2)cc1` (stereo not drawn), the GI50 in [1] was 1.52 µM; in assay [2] it was 1.91 µM; in assay [3], 1.41 µM; in [4] it was 1.77 µM; in [5] it was 1.07 µM; in [7], 1.8 µM. In addition, the GI50 in [10] was 1.39 µM; in assay [11] it was 1.83 µM. The TGI in assay [1] came to 2.9 µM; in assay [2] it was 4.48 µM; in assay [3], 2.9 µM; in [4], 3.2 µM; in assay [5] it was 2.3 µM; in assay [7], 3.25 µM. The TGI in assay [10] was 2.85 µM; in assay [11], 3.36 µM.

In the case of `Oc1cccc2ccc(Br)nc12`, the concentration for total growth inhibition (TGI) in assay [1], in assay [2], in [3], in [4], in [5] and in assay [6] was over 100 µM each time. The TGI in assay [7], in assay [9], in assay [10] and in assay [11] was over 100 µM throughout.

Turning to `COC1(OC)C2C=CC1C([C@](C)(N)CO)C2` (stereo partly drawn), the TGI in [1], in assay [2], in assay [3], in assay [4], in [5] and in [6] was over 100 µM each time. For the same compound, the TGI in [7], in assay [9], in assay [10] and in assay [11] was over 100 µM in each case.

Consider `COC1OC(Cn2cc([N+](=O)[O-])nc2C)C(O)C(O)C1O` (stereo not drawn), for which the TGI in assay [1], in assay [2], in assay [4], in [5], in assay [6] and in assay [7] was over 100 µM each time. The TGI in assay [8], in assay [9], in [10] and in [11] was over 100 µM throughout.

With `O=C(NC(CCCCN1C(=O)c2ccccc2C1=O)P(=O)(Oc1ccccc1)Oc1ccccc1)OCc1ccccc1` (stereo not drawn), the total growth inhibition concentration (TGI) in [1], in [2], in [3], in assay [4], in assay [6] and in assay [7] was over 100 µM throughout. Moreover, the TGI in assay [8], in assay [9] and in assay [10] was over 100 µM throughout.

In the case of `O=c1[nH]c(=O)n(C2CC(O)C(COP(=O)(OCC(Cl)(Cl)Cl)OCC(Cl)(Cl)Cl)O2)cc1F` (stereo not drawn), the TGI in [1], in assay [2], in assay [3], in [4], in assay [6] and in assay [7] was over 100 µM each time. Moreover, the TGI in assay [8], in assay [9], in [10] and in assay [11] was over 100 µM in each case.

As for `CCCC(C(=O)Nc1cccc2[nH]cnc12)C(=O)OCC` (stereo not drawn), the TGI in assay [2], in assay [3], in assay [4], in assay [5], in [6] and in assay [7] was over 100 µM each time. Moreover, the TGI in assay [8], in [10] and in assay [11] was over 100 µM in each case.
